Literature values in patent US20100063116A1 (priority 2006, published 2010).
Like-named read-outs stand apart in the source and are kept apart here.

Tests used:
[1] = tested on: D2 subfamily of dopamine receptors; conditions: in vitro
[2] = tested on: dopamine receptors in the striatum and the substantia nigra; conditions: electrophysiologic studies in animals
[3] = tested on: patients with early Parkinson's disease
[4] = tested on: patients with early Parkinson's disease; remark: listed apart in the source
[5] = end of 6-month maintenance, titrated up to 4.5 mg/day in three divided doses

intrinsic activity at the D2 subfamily of dopamine receptors [1]: full intrinsic activity
volume of distribution (CV=20%): about 500 L
renal clearance (CV=25%): approximately 400 mL/min
dose recovered in urine (almost all as unchanged drug): 90%
clearance in dialysis patients (dialysis patients): extremely low
terminal half-life (elderly volunteers): about 12 hours
metabolites in plasma or urine (human, in vivo): no metabolites have been identified
pharmacokinetics in early versus advanced Parkinson's disease patients (human, in vivo): comparable
decrease of clearance compared with healthy volunteers (moderate renal impairment (creatinine clearance approximately 40 mL/min)): about 60%
time to steady-state concentrations (of dosing): ≤ 2 days
absolute bioavailability (oral): greater than 90%
linearity of pharmacokinetics (over the clinical dosage range): linear pharmacokinetics
decrease of clearance compared with healthy volunteers (severe renal impairment (creatinine clearance approximately 20 mL/min)): about 75%
effect of food on the extent of absorption (taken with food): does not affect
terminal half-life (young healthy volunteers): about 8 hours
bound to plasma proteins (plasma proteins): about 15%
SMILES: CCCN[C@@H]1CCc2nc(N)sc2C1 [Pramipexole, pramipexole]
effect on striatal neuronal firing rates [2]: influences striatal neuronal firing rates
mean improvement from baseline on the UPDRS part II (ADL) total score [3, 5]: 1.9
mean improvement from baseline on the UPDRS part III total score [3, 5]: 5.0
beginning of statistically significant difference versus placebo, UPDRS part II ([3]; maximum dose 0.75 mg/day): 2 week
beginning of statistically significant difference versus placebo, UPDRS part III ([3]; maximum dose 1.5 mg/day): 3 week
dose-response relationship ([4]; 1.5 mg, 3.0 mg, 4.5 mg, or 6.0 mg per day): No dose-response relationship was demonstrated
mean improvement from baseline on the UPDRS part III total score ([4]; end of 4-week maintenance, fixed doses 1.5-6.0 mg per day): 4.2
mean improvement from baseline on the UPDRS part II total score ([4]; end of 4-week maintenance, fixed doses 1.5-6.0 mg per day, regardless of dose group): 1.8
benefit of 3 mg, 4.5 mg and 6 mg per day beyond 1.5 mg/day ([4]; fixed-dose study in early Parkinson's disease patients): not shown to provide any significant benefit
